In data set [1] the test system is Hsp90. Briefly: Affinity chromatography of Raji cell extracts on Survivin peptide column. The settings on record: eluate by Western blotting. The format is binding. The source says: (§1) A Survivin Ile^74-Leu^87 peptide (SEQ ID NO:4) containing a binding site for Hsp90 was immobilized onto a Sulfolink™ Coupling Gel (Pierce, Rockport, Ill.), and used to fractionate Raji cell extracts. Proteins were identified in the flow trough (FT) or eluate (E) by Western blotting with the indicated antibodies. Hsp90 and Hsp70 clearly bound the Survivin peptide including residues Ile^74-Leu^87. The anti-Hsp70 antibodies were obtained from Abcam, Cambridge, Mass. (cat. No. ab6535).
For orientation: In western blotting, separated proteins are transferred to a membrane and probed.

In data set [2] the test system is Hsp70. The data set is described as above. The format is binding. Particulars: eluate by Western blotting.
From the text: as §1

Data set [3] deals with T1, Hsp 27 (Homo sapiens, UniProt P04792).
T1 construct: used to fractionate Raji cell extracts; endogenous in cells; host or cells: Raji B lymphoma cells
The description is as above. The format is binding.
From the text: as §1

Data set [4] has as its system HeLa, MDA-MB231, MCF-7, PANC-1 tumor cell lines. The data set is described as follows: MTT cell viability with retro-inverso peptides. The format is cell-based. The settings on record: increasing concentrations, 24 hours. As to the method:
For determination of apoptosis by hypodiploid DNA content, various tumor cell lines were incubated with increasing concentrations of the cell permeable control scrambled (SEQ ID NO:25) or Survivin peptide (SEQ ID NO:19), harvested after 24 hours (floaters plus attached cells) fixed in 70% ethanol, and stained with 10 μg/ml propidium iodide plus 100 μg/ml RNAse A and 0.05% Triton™ X-100 in PBS, pH 7.4. Cultures were analyzed for DNA content by flow cytometry. For colorimetric quantification of cell viability, an MTT assay was used. […] Decrease in cell viability was analyzed for loss of colorimetric absorption at OD405.
To increase the stability in vivo of the cell permeable Survivin K79-L87 sequence, we synthesized peptidomimetic variants in which the cell penetrating Antennapedia sequence and the Survivin active sequence K79-L87 were synthesized using D-amino acid ([…]) and in the reverse order (inverso sequence). […] To test the ability of the retro-inverso cell permeable sequences to induce apoptosis in cancer cells, a panel of tumor cell lines were analyzed by the cell viability MTT assay after incubation with the indicated increasing concentrations of the P3 (Survivin) or P4 (control) retro-inverso cell permeable peptides.

Data set [5] deals with HCT116, HeLa, MCF-7, PANC-1, PC3 tumor cells. The data set is described as follows: Trypan blue exclusion in tumor cell lines. The format is cell-based. Particulars: 150 μM, 24 hours. The protocol:
To study the specificity of the retro-inverso P3 and P4 sequences described in Example 17, we incubated a variety of tumor cell lines with the cell permeable retro-inverso P3 and P4 peptides (150 μM), and stained the cultures after 24 hours by trypan blue (Sigma) exclusion. Cells that fail to exclude the blue dye were cells that lost cell viability and plasma membrane integrity.

For data set [6], the system named is PC3 tumors. The data set is described as follows: Peptide accumulation within the tumor mass, fluorescence microscopy. The format is in vivo, SCID/beige mice. Particulars: intraperitoneally, one hour after administration. As to the method:
To determine whether the survivin peptidomimetic accumulates intracellularly in vivo, animals carrying flank PC3 tumors were injected intraperitoneally with saline, or the cell-permeable retro-inverso K79-L87 survivin peptide P3. One hour after administration, the animals were sacrificed, and the tumors were carefully excised and analyzed for peptide accumulation within the tumor mass by fluorescence microscopy.

Data set [7] deals with normal lung fibroblast LU18 cells. The data set is described as follows: Trypan blue exclusion in normal cells. The format is cell-based. Particulars: 150 μM, 24 hours.

Square brackets hold non-standard residues; d marks the D form. Ends that are not written are not given here.

T1 sequence (P04792 whole entry): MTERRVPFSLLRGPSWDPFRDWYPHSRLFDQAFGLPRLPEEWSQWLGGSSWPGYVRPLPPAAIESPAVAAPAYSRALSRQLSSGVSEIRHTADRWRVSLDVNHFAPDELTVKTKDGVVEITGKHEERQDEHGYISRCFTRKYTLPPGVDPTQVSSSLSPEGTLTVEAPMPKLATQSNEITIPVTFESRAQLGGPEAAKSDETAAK

For the compound IDDHKKHSSGCAFL [SEQ ID NO:4], the “Hsp90 binding to peptide column” value in data set [1] is given as “clearly bound”. Besides, the “Hsp70 binding to peptide column” value in data set [2] is reported as “clearly bound”. Moreover, in data set [3], the “Hsp 27 binding to peptide column” value was “did not bind”.

Turning to “KKWKMRRNQFWVIWQRGHSFCALKS-CONH2 ([dK][dK][dW][dK][dM][dR][dR][dN][dQ][dF][dW][dV][dI][dW][dQ][dR]G[dH][dS][dF][dC][dA][dL][dK][dS]-NH2; also: retro-inverso) [P4, retro-inverso control scrambled peptide]”, the “cell viability (MTT)” value in data set [4] was “no decrease in cell viability”. Also, the “tumor cell viability (trypan blue exclusion)” value in data set [5] is listed as “did not reduce tumor cell viability”.

Regarding `CSCC[C@@H](NC(=O)[C@@H](CCCCN)NC(=O)[C@@H](Cc1c[nH]c2ccccc12)NC(=O)[C@@H](CCCCN)NC(=O)[C@@H](CCCCN)NC(=O)CCCCCNC(=O)CCCC[C@@H]1SC[C@@H]2NC(=O)N[C@@H]21)C(=O)N[C@H](CCCNC(=N)N)C(=O)N[C@H](CCCNC(=N)N)C(=O)N[C@H](CC(N)=O)C(=O)N[C@H](CCC(N)=O)C(=O)N[C@H](Cc1ccccc1)C(=O)N[C@H](Cc1c[nH]c2ccccc12)C(=O)N[C@@H](C(=O)N[C@H](CCCCN)C(=O)N[C@@H](C(=O)N[C@H](CCC(N)=O)C(=O)N[C@H](CCCNC(=N)N)C(=O)N[C@H](CC(C)C)C(=O)N[C@H](Cc1ccccc1)C(=O)N[C@H](C)C(=O)N[C@H](CS)C(=O)NCC(=O)N[C@H](CO)C(=O)N[C@H](CO)C(=O)N[C@H](Cc1c[nH]cn1)C(=O)N[C@H](CCCCN)C(N)=O)C(C)C)C(C)C` [P3], in data set [6], the “intracellular accumulation in tumor cells” value is reported as “showed intracellular fluorescence”. Further, in data set [7], the “viability of normal cells (trypan blue exclusion)” value is “neither the Survivin P3 nor the control P4 peptide resulted in decreased viability”.
